# Measurements as given in patent US8580795B2, “Heterocyclic compounds as phosphodiesterase inhibitors” (Orchid Chemicals & Pharmaceuticals Limited, priority 2009, dated 2013).
# Molecular target: human PDE4B enzyme (PDE4B2) (Homo sapiens, UniProt Q07343)
# Experiment: Phosphodiesterase 4 screening assay (SPA, [3H]-cAMP)
# Assay type: biochemical
# Conditions: 100 nM compound; 0.5 μM cAMP
# Protocol: Phosphodiesterase 4 Screening Assay:
# PDE4 (Phosphodiesterase type IV) enzymes convert cyclic AMP (cAMP) into AMP. The assay is performed to determine the effect of test compounds on the inhibition of purified human PDE4B enzyme.
# The assay involves the detection of the Tritiated AMP (product) using SPA beads known as yittrium silicate. The linear AMP bind preferentially to SPA yittrium silicate beads compared to cyclic nucleotides in the presence of zinc sulphate. The binding of the radiolabelled product to the bead brings the isotope into close proximity to allow radiation from the tritium to excite the scintillant within the bead to emit light. The unbound radiolabel is not close enough to allow this energy transfer and the light emitted due to the binding of tritiated AMP is detected as cpm (counts per minute).
# PDE Activity (SPA Based Assay Protocol):
# PDE4B activity was inhibited by the compounds according to the invention in a modified SPA (scintillation proximity assay) test, supplied by GE Healthcare Life Sciences (see procedural instructions “Phosphodiesterase [^3H]-cAMP SPA enzyme assay, code TRKQ 7090”), carried out in 96-well microtitre plates. The test volume is 100 μL and contains 50 mM Tris buffer (pH 7.4), 8.3 mM Mg^2+, in the presence of inhibitor or test compound, and containing PDE4B2 enzyme (sufficient to ensure that 10-20% of the cAMP is converted, under the said experimental conditions). […] After a pre-incubation of 5 minutes at 37° C., the reaction is started by adding the substrate (cAMP; 0.5 μM cAMP, including about 50,000 cpm of [^3H]-cAMP) and the assays are incubated for a further 10 minutes; after that, they are stopped by adding SPA beads containing 18 mM ZnSO4 (50 μl). After the beads have been sedimented (>30 minutes), the microtitre plates are analyzed in a Microplate luminescence detection device (TopCount* NXT; PerkinElmer Life Sciences). Where, the signal in the absence of enzyme is defined as the background. 100% activity was defined as the signal detected in the presence of enzyme and DMSO with the background subtracted. The corresponding IC50 values of the compounds for the inhibition of PDE4B2 activity are determined from the concentration-effect curves by means of non-linear regression fit of the standard 4-parameter/multiple binding sites equation from a eight- to ten-point titration. (Catherine B. et al. Anal. Biochem., 1999, 275(2), pp. 148-155, David M. E. Biochem. Pharmacol., 1999, 57, pp. 965-973)
# human PDE4B enzyme (PDE4B2), sequence (Q07343 1-564 isoform Q07343-2): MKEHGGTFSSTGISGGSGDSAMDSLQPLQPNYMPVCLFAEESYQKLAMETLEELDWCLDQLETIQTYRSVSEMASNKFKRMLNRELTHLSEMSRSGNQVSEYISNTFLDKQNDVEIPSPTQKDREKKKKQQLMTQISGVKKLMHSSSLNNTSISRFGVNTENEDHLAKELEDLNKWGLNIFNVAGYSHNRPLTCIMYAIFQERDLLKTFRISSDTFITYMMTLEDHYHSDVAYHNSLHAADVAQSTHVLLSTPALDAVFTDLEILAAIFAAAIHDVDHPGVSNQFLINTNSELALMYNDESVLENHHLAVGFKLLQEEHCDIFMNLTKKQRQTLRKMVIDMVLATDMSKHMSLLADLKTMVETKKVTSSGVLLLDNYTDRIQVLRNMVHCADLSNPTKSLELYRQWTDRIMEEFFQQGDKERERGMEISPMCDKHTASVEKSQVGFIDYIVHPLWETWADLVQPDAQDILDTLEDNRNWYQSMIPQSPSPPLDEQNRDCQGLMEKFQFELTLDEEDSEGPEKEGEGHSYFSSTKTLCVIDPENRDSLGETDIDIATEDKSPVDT
row,SMILES,inhibition at 0.1 µM [%]
1,"COc1ccc(-c2nc(CC(=O)Nc3c(Cl)cncc3Cl)cs2)c2c1oc1ccccc12 [Example 12, N-(3,5-Dichloropyridin-4-yl)-2-(2-(4-methoxydibenzo[b,d]furan-1-yl)-1,3-thiazol-4-yl)acetamide]",8.92
2,"CCOC(=O)c1csc(-c2ccc(OC)c3oc4ccccc4c23)n1 [Example 15, Ethyl 2-(4-methoxydibenzo[b,d]furan-1-yl)-1,3-thiazole-4-carboxylate]",17.6
3,"COc1ccc(-c2nc(C(=O)O)cs2)c2c1oc1ccccc12 [Example 16, 2-(4-Methoxydibenzo[b,d]furan-1-yl)-1,3-thiazole-4-carboxylic acid]",36
4,"COc1ccc(-c2nc(C(=O)Nc3ccccc3)cs2)c2c1oc1ccccc12 [Example 17, 2-(4-Methoxydibenzo[b,d]furan-1-yl)-N-phenyl-1,3-thiazole-4-carboxamide]",2.42
5,"COc1ccc(-c2nc(C(=O)Nc3ccc(Cl)cc3)cs2)c2c1oc1ccccc12 [Example 20, N-(4-Chlorophenyl)-2-(4-methoxydibenzo[b,d]furan-1-yl)-1,3-thiazole-4-carboxamide]",2.98
6,"CCOC(=O)c1sc(-c2ccc(OC)c3oc4ccccc4c23)nc1C [Example 21, Ethyl 2-(4-methoxydibenzo[b,d]furan-1-yl)-4-methyl-1,3-thiazole-5-carboxylate]",9.1
7,"COc1ccc(-c2csc(-c3ccc(OC)c4oc5ccccc5c34)n2)cc1 [Example 22, 2-(4-Methoxydibenzo[b,d]furan-1-yl)-4-(4-methoxyphenyl)-1,3-thiazole]",19.4
8,"CCNC(=O)c1nc(-c2ccc(OC)c3oc4ccccc4c23)oc1C [Example 57, N-Ethyl 2-(4-methoxydibenzo[b,d]furan-1-yl)-5-methyl-1,3-oxazole-4-carboxamide]",32.5
9,"COc1ccc(-c2nc(C(N)=O)c(C)o2)c2c1oc1ccccc12 [Example 58, 2-(4-Methoxydibenzo[b,d]furan-1-yl)-5-methyl-1,3-oxazole-4-carboxamide]",64.1
10,"COc1ccc(-c2nc(C(=O)NC3CCC(O)CC3)c(C)o2)c2c1oc1ccccc12 (stereo not drawn) [Example 60, N-(4-Hydroxycyclohexyl)-2-(4-methoxydibenzo[b,d]furan-1-yl)-5-methyl-1,3-oxazole-4-Carboxamide]",47.3
11,"COc1ccc(-c2nc(C(=O)NC(C)C)c(C)o2)c2c1oc1ccccc12 [Example 61, 2-(4-Methoxydibenzo[b,d]furan-1-yl)-5-methyl-N-(propan-2-yl)-1,3-oxazole-4-carboxamide]",44.3
12,"COc1ccc(-c2nc(C(=O)N3CCN(c4ncc(C(=O)O)cn4)CC3)co2)c2c1oc1ccccc12 [Example 66, 2-(4-(2-(4-Methoxydibenzo[b,d]furan-1-yl)oxazole-4-carbonyl)piperazin-1-yl)pyrimidine-5-carboxylic acid]",18.9
13,"COc1ccc(-c2nc(C(N)=O)co2)c2c1oc1ccccc12 [Example 67, 2-(4-Methoxydibenzo[b,d]furan-1-yl)-1,3-oxazole-4-carboxamide]",22.8
14,"CNC(=O)c1coc(-c2ccc(OC)c3oc4ccccc4c23)n1 [Example 69, 2-(4-Methoxydibenzo[b,d]furan-1-yl)-N-methyl-1,3-oxazole-4-carboxamide]",33.3
15,"COc1ccc(-c2nc(C(=O)NC3CC3)co2)c2c1oc1ccccc12 [Example 70, N-Cyclopropyl-2-(4-methoxydibenzo[b,d]furan-1-yl)-1,3-oxazole-4-carboxamide]",2.34
16,"COc1ccc(-c2nc3cc(C(=O)O)ccc3o2)c2c1oc1ccccc12 [Example 72, 2-(4-Methoxydibenzo[b,d]furan-1-yl)-1,3-benzo[d]oxazole-5-carboxylic acid]",22.2
17,"COc1ccc(-c2nc3cc(C(N)=O)ccc3o2)c2c1oc1ccccc12 [Example 73, 2-(4-Methoxydibenzo[b,d]furan-1-yl)-1,3-benzo[d]oxazole-5-carboxamide]",18.1
18,"COc1ccc(-c2nc3ccccc3o2)c2c1oc1ccccc12 [Example 74, 2-(4-Methoxydibenzo[b,d]furan-1-yl)-1,3-benzo[d]oxazole]",54.9

# Results, then the molecule that gave them:
row,inhibition at 0.1 µM [%],SMILES
1,5.16,"COc1ccc(-c2nc(-c3ccc(C#N)cc3)cs2)c2c1oc1ccccc12 [Example 8, 4-(2-(4-Methoxydibenzo[b,d]furan-1-yl)-1,3-thiazol-4-yl)benzonitrile]"
2,25.8,"COc1ccc(-c2nc(C(=O)N3CCN(c4ncccn4)CC3)cs2)c2c1oc1ccccc12 [Example 18, (2-(4-Methoxydibenzo[b,d]furan-1-yl)-1,3-thiazol-4-yl)(4-(pyrimidin-2-yl)piperazin-1-yl)methanone]"
3,21.9,"COc1ccc(-c2nc(C(=O)N3CCN(c4ccccn4)CC3)cs2)c2c1oc1ccccc12 [Example 19, (2-(4-Methoxydibenzo[b,d]furan-1-yl)-1,3-thiazol-4-yl)(4-(pyridin-2-yl)piperazin-1-yl)methanone]"
4,16.8,"COc1ccc(-c2nc(C)c(C(=O)O)s2)c2c1oc1ccccc12 [Example 23, 2-(4-Methoxydibenzo[b,d]furan-1-yl)-4-methyl-1,3-thiazole-5-carboxylic acid]"
5,59.5,"CS(=O)(=O)Nc1ccc2oc3c(OC(F)F)ccc(-c4nc(C(=O)O)co4)c3c2c1 [Example 49, 2-(4-(Difluoromethoxy)-8-(methylsulfonamido)dibenzo[b,d]furan-1-yl)-1,3-oxazole-4-carboxylic acid]"
6,20.3,"COc1ccc(-c2nc(C(=O)N3CCCC3)co2)c2c1oc1ccccc12 [Example 71, [2-(4-Methoxydibenzo[b,d]furan-1-yl)-1,3-oxazol-4-yl](pyrrolidin-1-yl)methanone]"
7,37.2,"COc1ccc(-c2nc3ncccc3o2)c2c1oc1ccccc12 [Example 75, 2-(4-Methoxydibenzo[b,d]furan-1-yl)[1,3]oxazolo[4,5-b]pyridine]"
8,48.3,"COc1ccc(-c2nc3cc(C(=O)NC4CCCC4)ccc3o2)c2c1oc1ccccc12 [Example 76, N-Cyclopentyl-2-(4-methoxydibenzo[b,d]furan-1-yl)-1,3-benzo[d]oxazole-5-carboxamide]"
9,55.3,"COc1ccc(-c2nc3cc(C(=O)NC4CCC(O)CC4)ccc3o2)c2c1oc1ccccc12 (stereo not drawn) [Example 77, N-(4-Hydroxycyclohexyl)-2-(4-methoxydibenzo[b,d]furan-1-yl)-1,3-benzo[d]oxazole-5-carboxamide]"
